The values below come from patent publication US9938292B2 (GUANGDONG ZHONGSHENG PHARMACEUTICAL CO., LTD, priority 2014, dated 2018).

For orientation: IC50 means the midpoint of a concentration-inhibition curve.

In this assay the test system is Hedgehog signaling pathway. Nature of the assay: Gli-Luc luciferase reporter gene assay in C3H10T1/2/Gli-Luc cells under Shh-N stimulation. It counts as cell-based. As to conditions: Mus musculus, C3H 10T1/2, 24 h, luciferase RLU, read-out: biological activity: IC50 of the inhibitory activities of compounds on the hedgehog pathway. An outline of the steps:
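C3H10T1/2 cells stably carrying a Gli-responsive luciferase reporter were stimulated with 30 nM Shh-N conditioned medium plus compound (7-point dilutions, duplicate) for 24 h at 37 °C. Luciferase luminescence read from lysates; IC50 by sigmoidal fit of RLU versus log concentration.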
A general note: A reporter such as luciferase makes a cellular process visible.

For the compound `COc1c(-c2ccc(N3CC(C)(C)C(O)C(C)(C)C3)cc2)cnc2c(-c3ccc(C#N)cc3)cccc12` [Embodiment 251], the IC50 is at most 50 nM. As for `COc1c(N2CCN(c3ccc(C(C)(C)O)cn3)CC2=O)cnc2c(-c3ccc(C#N)cc3)cccc12` [Embodiment 252, 4-(3-(4-(5-(2-hydroxypropan-2-yl)pyridin-2-yl)-2-oxopiperazin-1-yl-4-methoxyquinolin-8-yl))benzonitrile], the figure is 100 to 500 nM; as for `COc1c(N2CCN(c3ccc(C(C)(C)O)cn3)C(=O)C2)cnc2c(-c3ccc(C#N)cc3)cccc12` [Embodiment 253, 4-(3-(4-(5-(2-hydroxypropan-2-yl)pyridin-2-yl)-3-oxopiperazin-1-yl-4-methoxyquinolin-8-yl))benzonitrile], 100 to 500 nM; as for `CC(C)(O)c1ccc(N2CCN(c3cnc4c(-c5ccc(C#N)cc5)cccc4c3C3CC3)C(=O)C2)nc1` [Embodiment 254, 4-(4-cyclopropyl-3-(4-(5-(2-hydroxypropan-2-yl)pyridin-2-yl)-2-oxopiperazin-1-yl)quinolin-8-yl)benzonitrile], at most 50 nM. Take `CC(C)(O)c1ccc(N2CC3(C2)CN(c2cnc4c(-c5ccc(C#N)cc5)cccc4c2C2CC2)C3)nc1` [Embodiment 255, 4-(4-cyclopropyl-3-(6-(5-(2-hydroxypropan-2-yl)pyridin-2-yl)-2,6-diazaspiro[3.3]heptan-2-yl)quinolin-8-yl)benzonitrile]: the half-maximal inhibitory concentration (IC50) lay in the range of 100 to 500 nM. With `CC(C)(O)c1ccc(N2CCC3(CC2)CCN(c2cnc4c(-c5ccc(C#N)cc5)cccc4c2C2CC2)CC3)nc1` [Embodiment 256, 4-(4-cyclopropyl-3-(9-(5-(2-hydroxypropan-2-yl)pyridin-2-yl)-3,9-diazaspiro[5.5]undecan-3-yl)quinolin-8-yl)benzonitrile], the IC50 is 100 to 500 nM. Then `Cc1nc(N2C[C@@H](C)O[C@@H](C)C2)ccc1-c1cnc2c(-c3ccc(C#N)cc3)cccc2c1C1CC1` [Embodiment 257, 4-(4-cyclopropyl-3-(6-((2S,6R)-2,6-dimethylmorpholino)-2-methylpyridin-3-yl)quinolin-8-yl)benzonitrile], with at most 50 nM; and `CC(C)c1c(-c2ccc(N3C[C@@H](C)O[C@@H](C)C3)nc2)cnc2c(-c3ccc(C#N)cc3)cccc12` [Embodiment 258, 4-(3-(6-((2S,6R)-2,6-dimethylmorpholino)pyridin-3-yl)-4-isopropylquinolin-8-yl) benzonitrile], with 100 to 500 nM; and `C[C@@H]1CN(c2ccc(-c3cnc4c(-c5ccc(C#N)cc5)cccc4c3C3CCC3)cn2)C[C@H](C)O1` [Embodiment 259, 4-(4-cyclobutyl-3-(6-((2S,6R)-2,6-dimethylmorpholino)pyridin-3-yl)quinolin-8-yl) benzonitrile], with 50 to 100 nM.

As for `C[C@@H]1CN(c2ccc(-c3cnc4c(-c5ccc(C#N)cc5)cccc4c3C3=CCCC3)cn2)C[C@H](C)O1` [Embodiment 260], the IC50 lay within 100 to 500 nM.

`CC(C)c1ccc(N2CCN(c3cnc4c(-c5ccc(C#N)cc5)cccc4c3C3CC3)CC2)nc1` [Embodiment 261, 4-(4-((4-cyclopropyl-35-isopropylpyridin-2-yl)-3-)-quinolin-8-yl)benzonitrile]: the IC50 lay within 100 to 500 nM. In the case of `CC(C)(O)c1ccc(C2(O)CCN(c3cnc4c(-c5ccc(C#N)cc5)cccc4c3C3CC3)CC2)nc1` [Embodiment 262], the IC50 is at most 50 nM. Then `C[C@@H]1CN(c2ccc(-c3cnc4c(-c5ccccn5)cccc4c3C3CC3)cc2)C[C@H](C)O1` [Embodiment 263, (2S,6R)-4-(5-(4-8-cyclopropyl-(2-pyridinyl)quinolin-3-yl)pyridin-2-yl)-2,6-dimethylmorpholine], with at most 50 nM; and `C[C@@H]1CN(c2ccc(-c3cnc4c(-c5ccc(OC(F)(F)F)cc5)cccc4c3C3CC3)cn2)C[C@H](C)O1` [Embodiment 265, (2S,6R)-4-(5-(4-cyclopropyl-8-(4-(trifluoromethoxy)phenyl)quinolin-3-yl)pyridin-2-yl)-2,6-dimethylmorpholine], with 50 to 100 nM. Then `C[C@H]1CN(c2ccc(-c3cnc4c(-c5ccc(C#N)cc5)cccc4c3C3CC3)cn2)C[C@H](C)O1` [Embodiment 266, 4-(4-cyclopropyl-3-(6-((2S,6S)-2,6-dimethylmorpholino)pyridin-3-yl)quinolin-8-yl) benzonitrile], with at most 50 nM; and `CS(=O)(=O)CCC(=O)N1CCN(c2cnc3c(-c4ccc(C#N)cc4)cccc3c2C2CC2)CC1` [Embodiment 267, 4-(4-cyclopropyl-3-(4-(3-(methylsulfonyl)-3-propanoyl))quinolin-8-yl) benzonitrile], with at most 50 nM; and `COc1c(N2CCC(N3CCCC3)CC2)cnc2c(-c3ccc(C#N)cc3)cccc12` [Embodiment 268, 4-(4-methoxy-3-(4-(pyrrolidin-1-yl)piperidin-1-yl)quinolin-8-yl)benzonitrile], with 100 to 500 nM. Then `C[C@@H]1CN([C@@H]2CCN(c3cnc4c(-c5ccc(C#N)cc5)cccc4c3C3CC3)C[C@@H]2F)C[C@H](C)O1` [Embodiment 269, 4-(4-cyclopropyl-3-((3S,4R)-4-((2S,6R)-2,6-dimethylmorpholino)-3-fluoropiperidin-1-yl)quinolin-8-yl)benzonitrile], with at most 50 nM; and `COc1c(N2CCN(c3ccc(C(C)C)cn3)CC2)cnc2c(-c3ccc(C#N)cc3)cccc12` [Embodiment 270, 4-(3-(4-(5-isopropylpyridin-2-yl)-3-)-4-methoxyquinolin-8-yl) benzonitrile], with 50 to 100 nM.

In the case of `N#Cc1ccc(-c2cccc3c(C4CC4)c(N4CCN(c5cc[nH]c(=O)c5)CC4)cnc23)cc1` [Embodiment 271, 4-(4-cyclopropyl-3-(4-(2-oxo-1,2-dihydropyridin-4-yl)piperazin-1-yl)quinolin-8-yl) benzonitrile], the IC50 lay within 100 to 500 nM.
